Values quoted from earlier work as cited in PubChem BioAssay AID1259409 (Chemical Carcinogenesis Research Information System (CCRIS), 2018).

Test system: rodent chemically induced tumor inhibition, incidence and multiplicity
Experiment: CCRIS tumor inhibitor studies
Details: Carcinogen: DIETHYLNITROSAMINE, 55-18-5, N-METHYL-N-NITROSOUREA, 684-93-5, N-BUTYL-N-(4-HYDROXYBUTYL)NITROSAMINE, 3817-11-6, 1,2-DIM, Carcinogen: DIETHYLNITROSAMINE, 55-18-5, N-METHYL-N-NITROSOUREA, 684-93-5, N-BUTYL-N-(4-HYDROXYBUTYL)NITROSAMINE, 3817-11-6, 1,2-DIM, Dose [Inhibitor]: 0, 0.3% IN DIET FOR 23 WK BEGINNING 1 WK POST CARCINOGEN TREATMENT (STUDY DURATION: 28 WK), Route [Inhibitor]: ORAL, Species: RAT, Strain/Sex: F344/MALE, Dose [Carcinogen]: 100 MG/KG BW DEN ONCE, 20 MG/KG BW MNU ONCE ON DAYS 6,9, AND 12, 0.05% BBN IN DRINKING WATER FOR FIRST TWO WK, 40 MG/KG, Dose [Carcinogen]: 100 MG/KG BW DEN ONCE, 20 MG/KG BW MNU ONCE ON DAYS 6,9, AND 12, 0.05% BBN IN DRINKING WATER FOR FIRST TWO WK, 40 MG/KG, Promoter: NONE USED

Structure (SMILES): C[C@]12CC[C@H](O)CC1=CC[C@@H]1[C@@H]2CC[C@]2(C)C(=O)CC[C@@H]12
- tumour outcome (control, treated, inhibition, significance) (Target Tissue: Type of Lesion: LIVER: HEPATOCELLULAR ADENOMA, HYPERPLASTIC NODULES): 2/20 (10%), 15/20 (75%), -650%, p<0.01
- tumour outcome (control, treated, inhibition, significance) (Target Tissue: Type of Lesion: LUNG: ADENOCARCINOMA): 1/20 (5%), 0/20 (0%), 100%, not significant
- tumour outcome (control, treated, inhibition, significance) (Target Tissue: Type of Lesion: LUNG: ADENOMA): 8/20 (40%), 5/20 (25%), 38%, not significant
- outcome (Target Tissue: Type of Lesion: SMALL INTESTINE: ADENOCARCINOMA): 2/20 (10%), 0/20 (o%), 100%, not significant
- tumour outcome (control, treated, inhibition, significance) (Target Tissue: Type of Lesion: SMALL INTESTINE: ADENOMA): 5/20 (25%), 2/20 (10%), 60%, not significant
- tumour outcome (control, treated, inhibition, significance) (Target Tissue: Type of Lesion: THYROID: FOLLICULAR ADENOMA): 6/20 (30%), 1/20 (5%), 83%, p<0.05
- tumour outcome (control, treated, inhibition, significance) (Target Tissue: Type of Lesion: THYROID: FOLLICULAR CARCINOMA): 1/20 (5%), 2/20 (10%), -100%, not significant
